Experimental data taken from publication PMC4205289, “Triptolide inhibits human immunodeficiency virus type 1 replication by promoting proteasomal degradation of Tat protein” (Retrovirology, 2014).

What was measured:
HIV-1 NL4-3 = test: Time-of-addition experiment in TZM-bl cells; type: cell-based
Experimental: TZM-bl cells seeded in 96-well plates (2 × 10^4 /well) were infected with HIV-1 NL4-3 (MOI = 1). The virus inoculum was removed after 1 h of infection. Test compounds were added at different time points after infection (0 h, 2 h, 4 h, 6 h, 8 h, and 10 h). Dextran sulfate was added at 10 μg/mL, zidovudine at 1 μM and triptolide at 5 nM. At 48 h post-infection, the virus replication level was determined by analyzing luciferase activity in the cells as described above.

FLAG-Tat = tested on: T1, FLAG-Tat; test: Proteasome inhibition rescue of Tat expression, Western blot, HeLa cells; type: cell-based, HIV-1 NL4-3
T1 construct: expressed in transfected cells; host or cells: HeLa
Experimental: Figure 6 Triptolide reduces Tat protein stability by enhancing proteasomal degradation of Tat. (A) The effect of triptolide on Tat mRNA levels. HeLa cells were transfected with pEF1-Tat in the presence of increasing concentrations of triptolide. Cells were harvested 48 h post-transfection. The steady-state mRNA levels of Tat and GAPDH were examined using semi-quantitative reverse transcription PCR analysis. RT, reverse transcriptase. (B) The effect of triptolide on Tat protein degradation. HeLa cells were transfected with pEF1-FLAG-Tat in the presence of 5 nM triptolide or vehicle (DMSO). At 28 h post-transfection, cells were treated with 20 μg/mL of CHX to arrest protein synthesis. At 0, 1, 2, 3 h post-treatment, cells were harvested to determine protein expression levels using Western blot analysis. (C) The band intensities of FLAG-Tat in panel B were measured, and their natural log values were plotted as a function of time. Results were presented as the mean plus the standard deviations (n = 3). (D) Proteasome inhibition restores Tat protein expression. HeLa cells were transfected with pEF1-FLAG-Tat in the presence or absence of 5 nM triptolide. At 48 h post-transfection, cells were treated with 20 μM of MG132, and cultured for an additional 3 h before harvest. Protein expression levels were determined by Western blot analysis. TEXT PRINTED IN THE PICTURE: (C) DMSO: Half-lives: 2.0 h | (C) Triptolide: Half-lives: 0.4 h
Cells were washed with phosphate buffered saline (PBS) and lysed with radio immunoprecipitation assay lysis buffer supplemented with complete mini protease inhibitor cocktail (Roche) at 4°C for 1 h. Proteins from cell lysates were separated by SDS-PAGE and transferred to polyvinylidene difluoride membranes. After overnight incubation with primary antibodies at 4°C, each blot was probed with horseradish peroxidase-conjugated secondary antibody. Immunoreactive signals were detected with an enhanced chemiluminescence substrate (Thermo Scientific) using an AlphaEaseH FC Imaging System (Alpha Innotech Corporation).

HIV-1 mRNA = test: Reverse-transcription PCR of viral mRNA (Gag region) in infected Jurkat cells; type: cell-based; settings: HIV-1 NL4-3 MOI 0.5, 12 h post-infection, 118-D-24 50 μM, flavopiridol 20 nM, triptolide 5 nM
Experimental: (§1) The effects of the test compounds on HIV-1 proviral DNA and mRNA synthesis were analyzed by PCR. Jurkat cells were grown in 24-well plates and infected with the HIV-1 NL4-3 strain at an MOI of 0.5, and then test compounds were added at the desired concentrations. After incubation for 12 h, genomic DNA and mRNA from the infected cells were isolated using a Genomic DNA Mini Preparation Kit (Beyotime, China) and TRIzol reagent (Invitrogen Life Technologies), respectively. Nested PCR was used for the amplification of integrated proviral DNA, as previously described. To determine viral mRNA expression levels, 1 μg of RNA was treated with RQ1 RNase-Free DNase (Promega) and reverse transcribed using M-MLV Reverse Transcriptase (Promega) and random primers (Promega). An aliquot of cDNA was used as template for amplification of the HIV-1 Gag region as described elsewhere. […]
(§2) All of the PCR products were visualized on a UV transilluminator in 2% agarose gels stained with ethidium bromide. In preliminary experiments, the exponential range of the PCR amplification curve was determined for all of the PCR products by varying the amount of input DNA and the number of PCR cycles. Based on these experiments, appropriate conditions were chosen to perform semi-quantitative PCRs.

HIV-1 proviral DNA = test: Nested PCR of integrated proviral DNA in infected Jurkat cells; type: cell-based; settings: HIV-1 NL4-3 MOI 0.5, 12 h post-infection, 118-D-24 50 μM, flavopiridol 20 nM, triptolide 5 nM
Experimental: as §1, §2

[1] = tested on: HIV-1 molecular clone pNL4-3.Luc.R-E-; test: Transient gene expression assay, pNL4-3.Luc.R-E- transfected into Jurkat cells; type: cell-based; settings: 24 h, 118-D-24 50 μM, flavopiridol 20 nM, triptolide 0.2 ~ 5 nM
Experimental: Figure 3 Triptolide inhibits HIV-1 transcription. (A) Time-of-addition analysis. TZM-bl cells were infected with HIV-1 (MOI = 0.5, strain NL4-3), and the virus inoculum was removed after 1 h of absorption. Test compounds (dextran sulfate at 10 μg/mL, zidovudine at 1 μM and triptolide at 5 nM) were added at the indicated time points after infection. Reporter signal was monitored at 48 h post-infection as a measure of viral replication. (B) The effect of triptolide on HIV-1 proviral DNA formation. Jurkat cells were infected with HIV-1 (MOI = 0.5, strain NL4-3) in the presence of the test compounds (INI 118-D-24, 50 μM; flavopiridol, 20 nM; and triptolide, 5 nM). Proviral DNA synthesis was determined by nested PCR analysis at 12 h post-infection. (C) The effect of triptolide on HIV-1 mRNA synthesis. Jurkat cells were infected with HIV-1(MOI = 0.5, strain NL4-3) in the presence of the test compounds (INI 118-D-24, 50 μM; flavopiridol, 20 nM; triptolide, 5 nM). Viral mRNA (the Gag region) content was determined by reverse-transcription PCR analysis 12 h post-infection. (D) Inhibition of luciferase expression encoded in pNL4-3.Luc.R-E- by tiptolide. […]
To further confirm that triptolide interferes with HIV-1 transcription, a transient gene expression assay was performed. […] At 24 h after transfection, viral gene transcription (indicated by luciferase activity) was determined. […]

In the case of Cc1cn([C@H]2C[C@H](N=[N+]=[N-])[C@@H](CO)O2)c(=O)[nH]c1=O [zidovudine], the inhibition at 1 µM (HIV-1 NL4-3; Human immunodeficiency virus 1, NL43, TZM-bl, read-out: inhibitory activity retained) is reported as 71%.
With MG132 the “increase of Tat level” value (FLAG-Tat; 20 μM MG132 for 3 h, without triptolide, relative to DMSO control) was 30% and the “restoration of Tat protein, increase as % of Tat level in DMSO control” value (FLAG-Tat; 20 μM MG132 for 3 h in the presence of 5 nM triptolide) was 30%.
In the case of CN1CC[C@H](c2c(O)cc(O)c3c(=O)cc(-c4ccccc4Cl)oc23)[C@H](O)C1 [flavopiridol, reference compound], the “effect on viral mRNA synthesis” value (HIV-1 mRNA) is reported as “repress viral mRNA synthesis”, the “effect on proviral DNA formation (integration)” value (HIV-1 proviral DNA) is reported as “no effect on virus integration” and the “effect on luciferase expression from transfected pNL4-3.Luc.R-E-” value [1] is reported as “significantly reduced luciferase expression”.
With Dextran sulfate sodium salt the time-of-addition inhibition profile (HIV-1 NL4-3; dextran sulfate at 10 μg/mL, luciferase at 48 h) was “dramatic early loss in activity”.
